The ΔTm is the change in melting temperature against a reference sample. For orientation: Ki means a dissociation constant, usually derived from enzyme kinetics or from competition with a known ligand.

The values below come from ChEMBL document CHEMBL6096733, “Structure-Based Virtual Screening Identifies 2-Arylthiazole-4-Carboxylic Acids as a Novel Class of Nanomolar Affinity Ligands for the CaMKIIα Hub Domain” (J Med Chem, 2025).

Data set [1] has as its target T1, Calcium/calmodulin-dependent protein kinase type II subunit alpha (Homo sapiens, UniProt Q9UQM7). Nature of the data set: Induction of thermal stabilization of recombinant wildtype human CAMKIIalpha hub domain (345 to 475 residues) extracted from Escherichia coli BL21 (DE3) cells assessed as change in melting temperature at 0.625 to 320 microM by differential scanning fluorimetric analysis. To be noted: dose 0.625-320 µM. In general terms: Differential scanning fluorimetry follows unfolding on heating by fluorescence.

In data set [2] the target is T2, Calcium/calmodulin-dependent protein kinase type II subunit alpha (Rattus norvegicus, UniProt P11275). Nature of the data set: Inhibition of […] binding to CaMKIIalpha in rat brain cortical membrane assessed as inhibition constant incubated for 1 hrs by TopCount NXT microplate scintillation counter analysis. The data set is classed as cell membranes, Cortex. The settings on record: read-out: Ki.

The target of data set [3] is T1, Calcium/calmodulin-dependent protein kinase type II subunit alpha. Kind of data set: Induction of thermal stabilization of recombinant wildtype human CAMKIIalpha hub domain (345 to 475 residues) extracted from Escherichia coli BL21 (DE3) cells by differential scanning fluorimetric analysis. The settings on record: dose 0.625-320 µM.
The target of data set [4] is T2, Calcium/calmodulin-dependent protein kinase type II subunit alpha. Kind of data set: Inhibition of [3H]NCS-382 binding to CaMKIIalpha in rat brain cortical membrane assessed as inhibition constant incubated for 1 hrs by TopCount NXT microplate scintillation counter analysis. The class given is cell membranes, Cortex. The settings on record: read-out: Ki.
Data set [5] is described as follows: Prodrug conversion in mouse brain assessed as 2-(2,6-dichlorophenyl)thiazole-4-carboxylic acid concentration at 10 mg/kg, po measured after 0.5 hrs by LC-MS/MS analysis. The data set is classed as ADME, organism-based. The settings on record: in vivo.
The nature of data set [6]: Ratio of unbound brain to plasma drug concentration in mouse at 10 mg/kg, po measured after 0.5 hrs by LC-MS/MS analysis. The class given is ADME, organism-based. The settings on record: brain and plasma, read-out: K(p,uu,brain).
Data set [7] is described as follows: Prodrug conversion in mouse assessed as ratio of unbound 2-(2,6-dichlorophenyl)thiazole-4-carboxylic acid concentration in brain to plasma at 10 mg/kg, po measured after 0.5 hrs by LC-MS/MS analysis. The class given is ADME, organism-based.
Data set [8] in a line: Metabolic stability in pooled human plasma assessed as parent compound remaining at 20 uM measured after 60 mins by LC-MS analysis. To be noted: read-out: Stability. The data set is classed as ADME, cell-free.
Data set [9] is described as follows: Prodrug conversion in mouse plasma assessed as 2-(2,6-dichlorophenyl)thiazole-4-carboxylic acid concentration at 10 mg/kg, po measured after 0.5 hrs by LC-MS/MS analysis. The class given is ADME, organism-based. To be noted: in vivo.
Data set [10] in a line: Drug concentration in mouse plasma at 10 mg/kg, po measured after 0.5 hrs by LC-MS/MS analysis. The class given is ADME, organism-based.
The nature of data set [11]: Chemical stability of compound in phosphate buffer solution at pH 7.4. The class given is physicochemical.
Data set [12] can be described thus: Metabolic stability in pooled human plasma assessed as parent compound remaining at 20 uM measured after 120 mins by LC-MS analysis. The data set is classed as ADME, cell-free. The settings on record: read-out: Stability.
The nature of data set [13]: Metabolic stability in pooled CD-1 mouse liver microsomes assessed as parent compound remaining at 10 uM measured after 60 mins in presence of NADPH regeneration system by LC-MS analysis. To be noted: read-out: Stability. The data set is classed as ADME, Microsome. On the technique in general: Liver microsomes are vesicles of endoplasmic reticulum, rich in cytochrome P450 enzymes.

Data set [14] can be described thus: Metabolic stability in pooled CD-1 mouse liver microsomes assessed as parent compound remaining at 10 uM measured after 15 mins in presence of NADPH regeneration system by LC-MS analysis. The settings on record: read-out: Stability. The class given is ADME, Microsome.
Data set [15] is described as follows: Metabolic stability in pooled CD-1 mouse liver microsomes assessed as parent compound remaining at 10 uM measured immediately in presence of NADPH regeneration system by LC-MS analysis. The data set is classed as ADME, Microsome. To be noted: read-out: Stability.
A short description of data set [16]: Metabolic stability in pooled human plasma assessed as parent compound remaining at 20 uM measured immediately by LC-MS analysis. The settings on record: read-out: Stability. The data set is classed as ADME, cell-free.
The nature of data set [17]: Drug concentration in mouse brain at 10 mg/kg, po measured after 0.5 hrs by LC-MS/MS analysis. The class given is ADME, organism-based. The settings on record: read-out: Ct.
The nature of data set [18]: Metabolic stability in pooled CD-1 mouse liver microsomes assessed as parent compound remaining at 10 uM measured after 30 mins in presence of NADPH regeneration system by LC-MS analysis. To be noted: read-out: Stability. The data set is classed as ADME, Microsome.
A short description of data set [19]: Metabolic stability in pooled human plasma assessed as parent compound remaining at 20 uM measured after 30 mins by LC-MS analysis. The class given is ADME, cell-free. To be noted: read-out: Stability.
Data set [20] can be described thus: Ratio of drug concentration in mouse brain to plasma at 10 mg/kg, po measured after 0.5 hrs by LC-MS/MS analysis. To be noted: brain and plasma, read-out: BPR. The class given is ADME, organism-based.
Data set [21] is described as follows: Prodrug conversion in mouse assessed as ratio of 2-(2,6-dichlorophenyl)thiazole-4-carboxylic acid concentration in brain to plasma at 10 mg/kg, po measured after 0.5 hrs by LC-MS/MS analysis. The data set is classed as ADME, organism-based.

T2 sequence (P11275 whole entry): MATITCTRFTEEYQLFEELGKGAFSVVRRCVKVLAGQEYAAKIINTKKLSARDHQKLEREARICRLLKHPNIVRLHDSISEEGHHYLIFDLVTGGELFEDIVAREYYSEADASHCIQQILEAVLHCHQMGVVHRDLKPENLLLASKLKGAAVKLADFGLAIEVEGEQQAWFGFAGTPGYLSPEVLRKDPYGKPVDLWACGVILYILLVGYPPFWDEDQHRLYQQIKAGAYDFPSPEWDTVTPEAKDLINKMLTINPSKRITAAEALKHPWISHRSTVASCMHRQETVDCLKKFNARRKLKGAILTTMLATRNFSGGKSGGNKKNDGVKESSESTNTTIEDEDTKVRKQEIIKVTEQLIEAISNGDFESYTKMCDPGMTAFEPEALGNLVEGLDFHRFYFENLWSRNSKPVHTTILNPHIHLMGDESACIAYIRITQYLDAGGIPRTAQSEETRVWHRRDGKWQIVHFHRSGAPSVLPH
T1 sequence (Q9UQM7 whole entry, the tested form may be a part): as the sequence (P11275 whole entry) above, with N324S counted along it

For `O=C(O)c1csc(-c2c(Br)cccc2Br)n1`, the ΔTm in data set [1] came to 22 °C. For the same compound, in [2], the Ki stood at 0.05 µM. In addition, the Activity result in data set [3] is “Dose-dependent-effect”.

In the case of `Cc1ccc(-c2nc(CC(=O)O)cs2)cc1`, the Ki in [2] is 2.9 µM.

As for `OC1(c2csc(-c3c(Cl)cccc3Cl)n2)COC1`, the Ki in data set [2] was over 100 µM.

For `O=C(O)c1csc(-c2ccncc2)n1`, the Ki in data set [2] is 60.2 µM.

As for `O=C(O)Cc1csc(-c2cccc3ccccc23)n1`, in [2], the Ki is 9.9 µM.

For `O=C(O)c1csc(-c2c(F)cccc2F)n1`, the Ki in data set [2] amounted to 0.71 µM.

For `Cc1ccccc1-c1nc(C(=O)O)cs1`, the Ki in data set [2] worked out at 0.9 µM.

For the compound `COc1ccccc1-c1nc(C(=O)O)cs1`, the Ki in data set [4] was determined as 3.1 µM.

Turning to `CCc1ccc(-c2nc(C(=O)O)cs2)cc1`, the Ki in data set [2] was determined as 5.4 µM.

With `O=C(O)c1csc(-c2ccc(-c3ccccc3)cc2)n1`, the Ki in data set [2] was determined as 5 µM.

`O=C(O)c1csc(-c2c(I)cccc2I)n1`: the Ki in data set [2] was determined as 0.16 µM.

Turning to `O=C(O)c1csc(-c2ccc(O)cc2)n1`, the Ki in [2] was 12.6 µM.

In the case of `O=C(O)Cc1csc(Cc2ccccc2)n1`, the Ki in data set [2] was over 10 µM.

`O=C(O)c1csc(-c2ccc(Cl)c(Cl)c2)n1`: the Ki in data set [2] was determined as 1.6 µM.

As for `OC1(c2nc(-c3c(Cl)cccc3Cl)cs2)COC1`, in [2], the Ki is over 100 µM.

Take `CC(C)(C)OC(=O)c1csc(-c2c(Cl)cccc2Cl)n1`: in data set [5], the Ct was determined as 54 ng/g. Besides, in data set [6], the Kp uu at 0.5 h is 0.49. The “K(p,uu,brain)” value in data set [7] stood at 0.13. Moreover, the remaining at 1 h, 20 µM in data set [8] came out at 74%. Moreover, the Cp in data set [9] worked out at 2154 ng/mL. In addition, the concentration at 0.5 h in data set [10] was found to be 137 ng/mL; in [17], 627 ng/g. Further, the Stability entry in data set [11] is given as “Unstable”. Further, in data set [12], the remaining at 2 h, 20 µM is 70%. In addition, the remaining at 1 h, 10 µM in data set [13] is 45%. Besides, the remaining at 0.25 h, 10 µM in data set [14] is 70%. Further, the remaining at 0 min, 10 µM in data set [15] turned out to be 100%. Further, the Ki in data set [2] came to 56.4 µM. In addition, in data set [16], the remaining at 0 min, 20 µM was found to be 100%. The remaining at 0.5 h, 10 µM in data set [18] is 53%. Further, the remaining at 0.5 h, 20 µM in data set [19] was 78%. Besides, the Kp at 0.5 h in [20] came out at 4.7. In data set [21], the BPR worked out at 0.03.

As to `O=C(O)c1csc(-c2cccc(O)c2)n1`, the Ki in [2] was found to be 2.7 µM.

On to `O=C(O)Cc1csc(-c2ccccc2Cl)n1`, for which the Ki in data set [2] came to 2 µM.

Regarding `O=C(Nc1nc(C(=O)O)cs1)c1ccccc1`, the Ki in data set [4] is over 100 µM.

`O=C(O)Cc1csc(-c2c(Cl)cccc2Cl)n1`: in data set [2], the Ki was over 10 µM.

For the compound `O=C(O)c1csc(/C=C/c2ccccc2)n1`, in data set [2], the Ki is 3.2 µM.

For the compound `O=C(O)c1csc(Cc2ccccc2)n1`, in data set [2], the Ki came to 1.4 µM.
